Several values for one entry are separate records, joined by “and”; a condition that tells them apart may be missing. Equal values may be shown once.
How the values were obtained:
[1] = molecular target: BoNT/A LC (Clostridium botulinum, UniProt P0DPI0); type: biochemical
[2] = tested on: BoNT/A-mediated cleavage of SNAP-25 in hiPSC-derived neurons; type: cell-based, human; conditions: for EC50: read-out: EC50, protection of BoNT/A-intoxicated neurons (SNAP-25 cleavage)
[3] = tested on: BoNT/A; conditions: mouse
[4] = mouse, in vivo, sc, 1 mg/kg

Sequence of BoNT/A LC (P0DPI0 2-448 limits assumed): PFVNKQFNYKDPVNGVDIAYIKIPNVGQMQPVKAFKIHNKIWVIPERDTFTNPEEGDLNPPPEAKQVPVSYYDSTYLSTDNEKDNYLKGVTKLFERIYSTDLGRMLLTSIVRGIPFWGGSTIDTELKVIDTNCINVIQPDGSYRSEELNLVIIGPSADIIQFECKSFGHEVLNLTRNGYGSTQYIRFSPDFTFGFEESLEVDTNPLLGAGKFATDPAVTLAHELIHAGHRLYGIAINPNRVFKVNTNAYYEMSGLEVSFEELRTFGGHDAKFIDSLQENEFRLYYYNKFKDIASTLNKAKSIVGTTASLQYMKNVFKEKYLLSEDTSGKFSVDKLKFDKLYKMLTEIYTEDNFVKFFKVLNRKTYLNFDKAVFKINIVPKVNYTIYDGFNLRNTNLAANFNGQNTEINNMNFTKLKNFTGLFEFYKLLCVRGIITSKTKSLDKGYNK

With `O=C1O[C@H]([C@@H](O)CO)C([O-])=C1O.[Na+]` [ASC, Sodium ascorbate, reference compound] as the compound, how does the “effect on enzyme activity” value [1] read?
Its value is “no effect”.

Which “result in cell-based BoNT/A assay” value [2] does the source give for `c1ccc(-c2ccccn2)nc1` [BIPY, 2,2′-bipyridine] here?
The value was “promising results”.

With `CNC(=S)NN=CC=NNC(=S)NC.[Cu+2]` [Cu(GTSM), copper (II) glyoxal-bis(4-methylthiosemicarbazone)] as the compound, how does the “delay between +complex and control curves of SNAP-25 cleavage versus time” value [2] read?
The value was “less than half hour delay”.

And the “effect of additives NAC, ASC or BSO on complex inhibition of BoNT/A” value [2]?
The value was “no observable effect”.

And the “effect on SNAP-25 cleavage” value [2]?
The value was “able to mitigate SNAP-25 cleavage”.

What about the EC50 [2] of the same compound?
Its EC50 is about 1 µM.

And the “in vivo efficacy against BoNT/A” value [3]?
Its value is “efficacy against BoNT/A was established”.

What about the “efficacy after BoNT/A challenge” value ([3]; in vivo) of the same compound?
Its value is “statistically significant efficacy was not achieved”.

What about the time to death ([3]; in vivo) of the same compound?
Its time to death is “significant increase”.

What about the “time to death post-toxin exposure” value ([3]; in vivo, sc) of the same compound?
The value was “marked increase”.

What about the “survival of mice treated with complex only without toxin” value [4] of the same compound?
Its value is “complete survival”.

For `COCCN(CCOC)C(=S)[S-].COCCN(CCOC)C(=S)[S-].[Cu+2]` [Cu(MEDTC)2, copper (II) bis(2-methoxyethyl)dithiocarbamate], which “effect on SNAP-25 cleavage” value [2] is on record?
The value was “able to mitigate SNAP-25 cleavage”.

And the EC50 [2]?
Its EC50 is about 1 µM.

What about the “in vivo efficacy against BoNT/A” value [3] of the same compound?
Its value is “efficacy against BoNT/A was established”.

What about the time to death ([3]; in vivo) of the same compound?
The time to death was “significant increase”.

And the “survival of mice treated with complex only without toxin” value [4]?
The value was “complete survival”.

For `Oc1c(Cl)cc(Cl)c2cccnc12` [DCOQ, 5,7-dichloroquinolin-8-ol], which “result in cell-based BoNT/A assay” value [2] is on record?
The value was “promising results”.

For CuCl2 [Cu (II)], which Ki [1] is on record?
Its Ki is 1.56 µM and ~1 µM.

What about the enzyme activity [1] of the same compound?
Its enzyme activity is under 1%.

And the inhibition mechanism [1]?
Its inhibition mechanism is “noncompetitive inhibition”.

What about the “inhibitory activity in metal salt screen” value [1] of the same compound?
Its value is “significant inhibitory activity”.

And the “reversibility of inhibitory effect on Vmax” value [1]?
The value was “reversible”.

Source: article PMC5612488 (Journal of the American Chemical Society, 2017)
